Values quoted from earlier work, collected in patent US20150320746A1, “PHARMACEUTICAL FORMULATION COMPRISING 2,3-DIMETHYL-6-(N,N-DIMETHYLAMINOETHYL)-6H-INDOLO-(2,3-B)QUINOXALINE” (priority 2011, published 2015).

Tested on: HSV-1

## Nc1nc2c(ncn2COCCO)c(=O)[nH]1 [Acyclovir, acyclovir]
  selectivity ratio for the inhibitory activity against HSV-1 in vitro: about 2000
